Legend:
[1] = test system: chymotrypsin; assay: Activity of DABF-AmB on various proteases: chymotrypsin; format: biochemical; conditions: 1 μM
Method: (§1) DABF-AmB was tested, at a concentration of 1 μM, on various proteases (papain, chymotrypsin, kallicrein, leucocyte elastase, cathopsin D and recombinant protease p10) under conditions and in the presence of substrates appropriate for each of the proteases tested.

[2] = target: papain (Carica papaya, UniProt P00784); assay: Activity of DABF-AmB on various proteases: papain; format: biochemical; conditions: 1 μM
Method: as §1

[3] = test system: LAV/BRU strain of HIV-1; assay: Reverse transcriptase activity in supernatants of HIV-1 infected Jurkat and CEM cells; format: cell-based
Method: The T cells (Jurkat and CEM) used are very permissive to HIV infection. They are cultured in RPMI 1640 medium supplemented with 10% foetal calf serum, 2 mM of glutamine and a mixture of penicillin and streptomycin. The peripheral blood mononuclear cells are obtained from blood from healthy donors, isolated on a Ficoll Hypaque gradient and stimulated with 10 μg/ml of phytohaemagglutinin A (PHA), for two days, in RPMI 1640 medium supplemented, prior to the infection by HIV, with amikacin and vancomycin (10 mg/ml), polybrene (1 mg/ml) and anti-interferon gamma serum (5 U/ml). After infection, the PBMCs are cultured (10^5 per well) in flat-bottomed 96-well plates in the same RPMI 1640 medium (200 μl per well).
Infectious preparations of the LAV/Bru strain of HIV-1 are obtained from chronically infected CEM cell (clone 13) culture supernatants filtered through a 0.45-μm filter.
(§2) For the infection, fresh Jurkat or CEM type cells are centrifuged and the pellet is incubated for 2 hours at 37° C. with the viral preparation (10000 cpm of reverse transcriptase activity/10^6 cells, which corresponds to a multiplicity of infection of 0.04 to 0.1). The cells are then washed and resuspended (0.5×10^6/ ml) in fresh culture medium. Reverse transcriptase activity is determined at specific times after the infection, using the acellular infected cell supernatant.
The reverse transcriptase activity is determined at the indicated times using the culture supernatant, according to the procedure described by REY et al., Biochem. Res. Comm. 121, 126-133 (1984).
The Jurkat and CEM type T cells are infected with the LAV/BRU strain of HIV-1.
Viral infection and replication are monitored by measuring the reverse transcriptase activity in the culture supernatants.
To measure the anti-HIV activity of DABF-AmB, infected cells are cultured in the presence of increasing doses (between 0.1 μM and 100 μM) of the product; […] kept constant during the infection by carrying out a one half dilution, every 3 days, of the growing cells in fresh medium containing the desired concentration.
The corresponding results are illustrated in FIGS. 3b and 3d: the reverse transcriptase activity measured on the 8th day of the viral infection is represented on the y axis and the DABF-AmB concentration on the x axis.

[4] = test system: viral antigen p24; assay: Expression of soluble viral antigen p24 in HIV-1 infected Jurkat and CEM cells; format: cell-based
Method: as §2
The viral antigen p24 was quantified in the infected-cell supernatant by radioimmunological assay using the procedure recommended by the manufacturer (ABBOTT, Diagnostics Division).
The expression of the soluble viral antigen p24 was investigated at the same time as the reverse transcriptase activity, in the cell culture supernatants.
The AmB treatment is carried out under the same conditions as the DABF-AmB treatment.
In another experiment, 10 μM of DABF-AmB are added either during pretreatment 24 hours before the infection, or alternatively during the 2-hour inoculation stage, or alternatively during continuous treatment, as described above, for 12 days following the infection.

[5] = test system: gp120; assay: Membrane expression of gp120 in HIV-1 infected Jurkat and CEM cells; format: cell-based; conditions: 10 μM continuous, both cell lines, 8th day
Method: Membrane expression of CD4 and gp120 is measured by means of the monoclonal antibodies OKT4 (0,5 μg/ml), 110-4 (2 μg/ml) respectively, which are stained using a […].
The fluorescence is measured by means of a FACSTAR cell counter (BECTON DICKINSON, MOUNTAIN VIEW, Calif.). The results are expressed as mean fluorescence intensity.
The anti-gpl10 monoclonal antibody 110-4 (GENETIC SYSTEMS CORP., Seattle, Wash.) also recognizes gP120 at the surface of the T cells.
Immunofluorescence analyses are carried out on the 8th day of the infection in order to verify whether the inhibition of HIV replication by DABF-AmB results in 10 a reduced membrane expression of viral antigens.

[6] = test system: PBMCs; assay: Cytotoxicity on PBMCs; format: cell-based, human; conditions: concentrations up to 10^-3 M
[7] = test system: HIV LAV/BRU; assay: Protection of CD4 cells in cultures of HIV-infected human thymocytes; format: cell-based, HIV-1
Method: Human thymuses were obtained during corrective heart surgery operations on 3 to 7 year old children. The tissues were cut into fragments and the red blood cells were removed by treating with […] buffer. After washing in PBS buffer, cellular suspensions were prepared in an RPMI 1640 medium containing 10% of human serum type […]. Dead cells were removed by passing over a sterile nylon wool column.
The cells were infected with HIV LAV/BRU as indicated above in the general procedures, and then re-inoculated in the presence of PHA, of anti-CD2 or anti-CD3 antibodies and of IL2 and cultured for 10 days at a rate of 1×10^7 cells/ml. After 10 days, viral production was evaluated by measuring the RT activity in the supernatants and the distribution of CD4/CD8 was evaluated by double fluorescence flow cytometry by means of FITC-labelled anti-CD4 antibodies (OKT4) and phycoerythrin-labelled anti-CD8 antibodies (OKT8). DABF-AmB was added to the cultures immediately after infection and maintained during the entire duration of the culture.

[8] = test system: HIV2-rod; assay: Formation of syncytia in HUT78 cells infected with HIV2-rod; format: cell-based, HIV-2
Method: HUT78 cells were inoculated in 96-well plates in an amount of 2×10^4 cells per well, in […]. They were infected with various viral concentrations and DABF-AmB was added immediately after the infection, at various concentrations. The formation of syncytia was evaluated after 3 and 5 days by direct reading under an inverted microscope (semi-quantitative test).

[9] = 10 μM added during the 2-hour inoculation stage
[10] = 10 μM added prior to infection (24 hours pretreatment)

Chain of papain (P00784 134-345): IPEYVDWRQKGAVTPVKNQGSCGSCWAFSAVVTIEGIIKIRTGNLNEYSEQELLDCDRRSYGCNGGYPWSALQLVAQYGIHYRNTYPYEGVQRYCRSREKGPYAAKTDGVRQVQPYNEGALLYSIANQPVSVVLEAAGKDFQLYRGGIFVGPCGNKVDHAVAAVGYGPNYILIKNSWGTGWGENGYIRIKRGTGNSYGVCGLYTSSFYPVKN

## C[C@@H]1[C@H](O)[C@@H](C)/C=C/C=C/C=C/C=C/C=C/C=C/C=C/[C@H](O[C@@H]2O[C@H](C)[C@@H](O)[C@H](NCC(=O)[C@@H](O)[C@@H]3OC(c4ccccc4)OC[C@H]3O)[C@@H]2O)C[C@@H]2O[C@](O)(C[C@@H](O)C[C@@H](O)[C@H](O)CC[C@@H](O)C[C@@H](O)CC(=O)O[C@H]1C)C[C@H](O)[C@H]2C(=O)O (stereo partly drawn) [DABF-AmB, 1-deoxy-1-amino-4,6-O-benzylidene-D-fructosyl-AmB]
[1]
  inhibition of chymotrypsin: does not inhibit
[2]
  inhibition of papain: does not inhibit
[3]; [9]
  inhibition of reverse transcriptase activity: does not bring about any significant inhibition
[3]; [10]
  inhibition of reverse transcriptase activity: does not bring about any significant inhibition
[3]; Human immunodeficiency virus 1, 192 h, Jurkat and CEM cells, 10 μM, 8th day, N=4
  inhibition at 10 µM: 88%
[3]; Human immunodeficiency virus 1, 192 h, Jurkat and CEM cells, 8th day, read-out: concentration from which inhibition of reverse transcriptase activity is observed
  minimal effective concentration: ≥ 5 µM
[3]; Jurkat and CEM cells, concentrations below 1 μM
  inhibition of reverse transcriptase activity (in words): No significant inhibition
[4]; [9]
  inhibition of p24 secretion: does not bring about any significant inhibition
[4]; [10]
  inhibition of p24 secretion: does not bring about any significant inhibition
[4]; Human immunodeficiency virus 1, 288 h, read-out: concentration for significant inhibition of p24
  minimal effective concentration: > 5 µM
[4]; p24, 10 μM, 4 and 8 days
  efficacy on the multiplication of HIV compared with AmB: substantially greater than that of AmB
[5]
  membrane expression of gp120: substantially reduces
[6]
  cytotoxic effect on PBMCs: without cytotoxic effect
[7]; 10 days
  RT activity in the supernatants of infected thymocytes: decrease in RT activity
[7]; in proportion to the concentration
  CD4+ cells in infected thymocyte cultures: preservation or the reappearance of CD4+ cells
[7]; infected cultures
  infection of CD4+ thymocytes and distribution of subpopulations of thymic cells: inhibits the infection of CD4+ thermocytes by HIV and restores a normal distribution of the subpopulations of thymic cells
[8]; 5 μM, 10 TCID50, 3 days
  formation of syncytia: - and +
[8]; 5 μM, 10 TCID50, 5 days
  formation of syncytia: - and +
[8]; 5 μM, 100 TCID50, 3 days
  formation of syncytia: +
[8]; 10 μM, 10 TCID50, 3 days
  formation of syncytia: -
[8]; 10 μM, 10 TCID50, 5 days
  formation of syncytia: -
[8]; 10 μM, 100 TCID50, 3 days
  formation of syncytia: + and -
[8]; 50 μM, 10 TCID50, 5 days
  formation of syncytia: -
[8]; 50 μM, 100 TCID50, 3 days
  formation of syncytia: -
[8]; 50 μM, 100 TCID50, 5 days
  formation of syncytia: -
[8]; 100 μM, 100 TCID50, 3 days
  formation of syncytia: -
[8]; 100 μM, 100 TCID50, 5 days
  formation of syncytia: -
[8]; HUT78, HIV-2
  inhibition of formation of syncytia (in words): in a dose-dependent manner

Source: patent publication US5514662A, “Use of amphotericin B derivatives as protease inhibitors” (priority 1991, dated 1996)
